For one assay, the system named is LXFA677 xenograft. The experiment in a line: Xenograft tumor growth, LXFA677. The assay is classed as in vivo, mice (NMRI nu/nu). The conditions noted are these: LXFA677 lung, KRAS WT; 13 mg/kg IV twice weekly 3 weeks; day 21. As to the method:
(§1) Xenografts with names beginning with LXF are from Oncotest GmbH, Freiburg, Germany. Studies with these tumors were performed at Oncotest GmbH, with MLN2238 provided by Millennium Pharmaceuticals, Inc. SW48 and SW48-K-Ras G13D cell lines were obtained from Horizon Discovery Ltd., Cambridge UK, and experiments with MLN2238 were performed at Millennium Pharmaceuticals, Inc. All other xenografts in these studies were derived from cell lines purchased from ATCC.
(§2) Primary human tumor derived xenografts: tumors are grown by serial passage in immunocompromised mice, and no cell culture procedures were used. Freshly excised tumor fragments from xenograft-bearing mice were implanted via trochar into the subcutaneous space in the dorsal flank of recipient immunocompromised mice of the strain shown in Table 5.
(§3) Tumor measurement: After inoculation, tumors were measured twice weekly using a vernier caliper. Tumor volumes were calculated using a standard formula (0.5×[length×width^2]). […]
(§4) Treatment period: Drug-treated group received MLN2238 by intravenous administration twice weekly for 3 weeks, at or below the maximum tolerated dose identified in tolerability studies conducted in the same strain of tumor bearing mice (strain and dose listed in table). […] Tumor size and body weight were measured twice a week.

Another assay concerns LXFL1121 xenograft. The experiment in a line: Xenograft tumor growth, LXFL1121. It is filed as in vivo, mice (NMRI nu/nu). The conditions noted are these: LXFL1121 lung, KRAS WT; 13 mg/kg IV twice weekly 3 weeks; day 22. As to the method:
as §1, §2, §3, §4

The test system of the next assay is NCI-H460 xenograft. The experiment in a line: Xenograft tumor growth, NCI-H460. The assay is classed as in vivo, mice (NCr-Nude). Particulars: NCI-H460 lung, Kras Q61H; 14 mg/kg IV twice weekly; day 16. As to the method: Cell-line derived xenografts: freshly dissociated tumor cells grown using standard cell culture procedures were aseptically injected into the subcutaneous space in the dorsal flank of immunocompromised mice.
Tumor measurement: After inoculation, tumors were measured twice weekly using a vernier caliper. Tumor volumes were calculated using a standard formula (0.5×[length×width^2]). When the tumors reached a volume of approximately 150-250 mm^3, mice were randomized into treatment groups.
Treatment period: Drug-treated group received MLN2238 by intravenous administration twice weekly for 3 weeks, at or below the maximum tolerated dose identified in tolerability studies conducted in the same strain of tumor bearing mice (strain and dose listed in table). The control group received vehicle (5% hydroxyprolyl beta-cyclodextrin) by the same route and schedule. Tumor size and body weight were measured twice a week.

A further assay has as its system LXFE397 xenograft. Briefly: Xenograft tumor growth, LXFE397. The assay is classed as in vivo, mice (NMRI nu/nu). The conditions noted are these: LXFE397 lung, KRAS WT; lower dose 8 mg/kg IV twice weekly 3 weeks; day 21. As to the method: as §1, §2, §3, §4
The subject of a further assay is LXFA1647 xenograft. Briefly: Xenograft tumor growth, LXFA1647. It is filed as in vivo, mice (NMRI nu/nu). Particulars: LXFA1647 lung, KRAS WT; lower dose 8 mg/kg IV twice weekly 3 weeks; day 25. As to the method:
as §1, §2, §3, §4

A further assay relates to LXFL1072 xenograft. The experiment in a line: Xenograft tumor growth, LXFL1072. It is filed as in vivo, mice (NMRI nu/nu). Particulars: LXFL1072 lung, Kras G12C; lower dose 8 mg/kg IV twice weekly; day 20. As to the method: as §1, §2, §3, §4
Another assay relates to KRAS mutant xenografts. The experiment in a line: Xenograft panel, KRAS mutant (average). It is filed as in vivo, immunocompromised mice. Particulars: KRAS mutant colorectal and NSCLC xenografts; higher dose 11-14 mg/kg. From the text: The investigational drug MLN9708 (Kupperman et al. (2010) Cancer Res. 70:1970-1980) is an oral proteasome inhibitor currently being evaluated in Phase III trials of multiple myeloma and light chain amyloidosis and in Phase 1 and 2 trials in hematological and solid tumor malignancies. […] In many studies, MLN2238 is used as a surrogate for MLN9708. In vitro, MLN2238 is potent across a broad range of solid tumor cell types evaluated with standard cell viability and colony formation assays (Kupperman et al. supra). However, not all cell lines which respond to MLN2238 in vitro are responsive to MLN2238 when grown in vivo as xenografts in immunocompromised mice. In order to understand the contributing factors that determine in vivo sensitivity to MLN2238, a panel of 6 colon and 14 non-small cell lung (NSCLC) xenograft tumors were evaluated for mutations in cancer-related genes and for tumor pharmacokinetics and pharmacodynamic markers.
Tumor measurement: After inoculation, tumors were measured twice weekly using a vernier caliper. Tumor volumes were calculated using a standard formula (0.5×[length×width^2]). When the tumors reached a volume of approximately 150-250 mm^3, mice were randomized into treatment groups. […]

The next assay relates to SW48 KRas-G13D cells. The experiment in a line: […]-GLO Luminescent Cell Viability Assay, SW48 KRas-G13D. It is filed as cell-based. Particulars: Homo sapiens, 72 hrs of treatment, read-out: EC50 (in vitro sensitivity, cell viability).

pEC50: −log10 of the molar value.

For `CC(C)C[C@H](NC(=O)CNC(=O)c1cc(Cl)ccc1Cl)B(O)O` [MLN2238], the “Av. Volume of treated tumors (mm^3 ± SEM)” value in the assay with LXFA677 xenograft was 586.2 ± 82.1 mm^3; in the assay with LXFL1121 xenograft it was 940.8 ± 127.2 mm^3; in the assay with NCI-H460 xenograft, 1301.3 ± 120.6 mm^3; with LXFE397 xenograft, 1017.41 ± 211.7 mm^3; with LXFA1647 xenograft, 384.3 ± 74.4 mm^3; with LXFL1072 xenograft, 675.83 ± 84.5 mm^3. Moreover, the “T/C (av. Volume of treated/av. Volume control)” value in the assay on LXFA677 xenograft is recorded as 0.42; in the assay on LXFL1121 xenograft, 0.68; with NCI-H460 xenograft, 1.1; in the assay with LXFE397 xenograft, 0.57; in the assay with LXFA1647 xenograft, 0.79; in the assay with LXFL1072 xenograft, 1.09. Also, the “average T/C” value with KRAS mutant xenografts is 0.82. For the same compound, the pEC50 in the assay with SW48 KRas-G13D cells was 7.71.

In general, pEC50 refers to −log10 of the EC50, conventionally taken in molar units.
